This is an account of results in patent US20080113927A1, “Indolopyrrolocarbazole derivatives and anti-tumor agent” (priority 2003, published 2008).

In experiment [1] the test system is MKN-45 (human stomach cancer cells). As to the kind of experiment: Cell-growth inhibitory activity against MKN-45 (WST-8 method). The format is cell-based. The settings on record: 72 h, MKN-45 cells, 3 days incubation, read-out: 50% tumor growth inhibiting activity (IC50). How it is done: Method for Determining the Effects of the Agent on Cells
Fetal calf serum (FCS) was obtained from Molgate and the DMEM culture medium from Asahi Technoglass Inc.
Human gastric cancer cell MKN-45 was obtained from the IBL Co., Ltd.
The cells were suspended in 10% FCS-DMEM medium and the suspension was distributed in a 96-well plastic plate in the amount of 1000 cells/50 microliter/well. The plate was incubated at 37° C. in 5% CO2-95% air overnight. Each drug was dissolved in dimethylsulfoxide or a suitable solvent by serial dilution and distributed in the wells at 50 microliters per well in which the cells had been added. The plate was incubated at 37° C. in 5% CO2-95% air for 3 days. The growth of the cultured cells was measured by the WST-8 method (H. Tominaga et al., Anal. Commun., 36, 47-50 (1999)). In the WST-8 method, 10 microliter of WST-8 reagent solution was added, and then incubated at 37° C. for 1 to 6 hours. After stirring the plate, the resulting formazan was quantitatively analyzed by colorimetry to determine the inhibition rate of the drug. Thus, 50% inhibitory concentration (IC50) for the growth was determined for each compound.

For experiment [2], the system named is Human lung cancer cells LX-1. The experiment in a line: Anti-tumor effect on LX-1 solid tumor transplanted subcutaneously in nude mice. The format is in vivo, nude mice (Balb/c-nu/nu). The following applies: LX-1 in nude mice. An excerpt:
Method for Determining the Effects of the Agent on Animals
Female nude mice of 5 weeks of age (Balb/c-nu/nu) were obtained from Clea Japan, Inc. Human lung cancer cells LX-1 were obtained from the Japanese Foundation for Cancer Research Institute.
The synthesis of the control compound is described in JP-A No. 10-245390, Example 14.
The cancer cells were transplanted subcutaneously to nude mice so that solid cancer can be maintained. The solid cancer was sliced into 3 mm cubic blocks in physiological saline under ice cooling. One of the blocks was transplanted subcutaneously to a nude mouse to be used in experiment (Day 1). The cancer cells were grown subcutaneously in the mouse to form a tumor mass. The size of the mass was measured with a lapse of time, and when the volume reached 0.2 cm^3 or more (approximation by volume=major axis×minor axis^2÷2), administration of the drug was started. The drug was dissolved in 5% glucose solution and administered intravenously at the tail successively twice a week for 2 weeks (total 4 times). Two weeks after the administration, the percentage (T/C%) of the tumor volume (T) was calculated from the tumor volume (C) in the control group and that (T) in the test group as a tumor volume ratio.

Take `O=C1c2c(c3c4ccc(O)cc4n(C4OC(CO)C(O)C(O)C4O)c3c3[nH]c4cc(O)ccc4c23)C(=O)N1NCc1ccccn1` (stereo not shown) [Example 2]: in experiment [1], the IC50 (in general, the concentration needed to halve the response being measured) came out at 1.4 nM.
Consider `O=C1c2c(c3c4ccc(O)cc4n(C4OC(CO)C(O)C(O)C4O)c3c3[nH]c4cc(O)ccc4c23)C(=O)N1NCc1cccs1` (stereo not shown) [Example 8], for which the IC50 in experiment [1] amounted to 4.1 nM.
Take `O=C1c2c(c3c4ccc(O)cc4n(C4OC(CO)C(O)C(O)C4O)c3c3[nH]c4cc(O)ccc4c23)C(=O)N1NCc1ccco1` (stereo not shown) [Example 6]: the IC50 in experiment [1] is 5 nM.
Still for that read-out and setting: in the case of `O=C1c2c(c3c4ccc(O)cc4n(C4OC(CO)C(O)C(O)C4O)c3c3[nH]c4cc(O)ccc4c23)C(=O)N1NCCCc1cccnc1` (stereo not shown) [Example 4] it was 6.3 nM.
On the same count and under the same terms, in the case of `O=C1c2c(c3c4ccc(O)cc4n(C4OC(CO)C(O)C(O)C4O)c3c3[nH]c4cc(O)ccc4c23)C(=O)N1NCc1cccnc1` (stereo not shown) [Example 3] it was 0.95 nM.
The same measure, in the same setting: in the case of `O=C1c2c(c3c4ccc(O)cc4n(C4OC(CO)C(O)C(O)C4O)c3c3[nH]c4cc(O)ccc4c23)C(=O)N1NCc1ccoc1` (stereo not shown) [Example 5] it was 2.8 nM.
Regarding `O=C1c2c(c3c4ccc(O)cc4n(C4OC(CO)C(O)C(O)C4O)c3c3[nH]c4cc(O)ccc4c23)C(=O)N1NCc1ccncc1` (stereo not shown) [Example 1], in experiment [1], the IC50 was found to be 0.71 nM. The “Anti-tumor activity against human lung cancer cells compared with the control compound” value in experiment [2] (comparison from Table 2) was “markedly a stronger anti-tumor activity”. Also, the “Ratio of tumor volume Treated/Control (%)” value in experiment [2] (i.v. twice a week for 2 weeks, total dose 1200 mg/m^2, two weeks after the administration) is 1% (1200 mg/m^2).
With `O=C1c2c(c3c4ccc(O)cc4n(C4OC(CO)C(O)C(O)C4O)c3c3[nH]c4cc(O)ccc4c23)C(=O)N1NCc1ccsc1` (stereo not shown) [Example 7], the IC50 in experiment [1] worked out at 2.7 nM.
